Our source for the IC50 values is patent US20260176282A1, “BICYCLIC COMPOUNDS AS CDK INHIBITORS” (BEONE MEDICINES I GMBH, priority 2023, published 2026).

One may read the IC50 as the concentration that gives 50% inhibition.

Like-named read-outs stand apart in the source and are kept apart here.

For experiment [1], the target named is T1, CDK2/Cyclin E1 (Homo sapiens, UniProt P24941). Description: CDK2/Cyclin E1 TR-FRET biochemical assay (0.060 mM ATP). To be noted: 120 minutes reaction. The protocol:
(§1) Compounds disclosed herein were tested for inhibition of CDK2/Cyclin E1 or CDK1/Cyclin B1 kinase in an assay based on the time-resolved fluorescence-resonance energy transfer (TR-FRET) methodology. The assay was carried out in 384-well low volume black plates in a reaction mixture containing CDK2/Cyclin E1 or CDK1/Cyclin B1, 0.060 mM ATP for CDK2/Cyclin E1 or 0.015 mM ATP for CDK1/Cyclin B1, 0.15 μM Rb (Ser780)-biotin substrate and 0-10 μM compound in buffer containing 50 mM HEPES pH7.0, 0.02% NaN3, 0.01% BSA, 0.1 mM Orthovanadate, 50 mM MgCl2, 1 mM DTT and 0.005% Tween-20. The kinase was incubated with compound for 60 minutes at room temperature and the reaction was initiated by the addition of ATP and Rb (Ser780)-biotin substrate. After reaction at room temperature for 120 minutes, an equal volume of stop/detection solution was added according to the manufacture's instruction (Cisbio Bioassays). The stop/detection solution contained Streptavidin-XL665 and Anti-pRb (Ser780) mAb-Eu Cryptate in Detection buffer (Cisbio Bioassays). Plates were incubated at room temperature for 60 minutes, and the TR-FRET signals (ex337 nm, em665 nm/620 nm) were recorded on a PHERAstar FSX plate reader (BMG Labtech). The inhibition percentage of CDK2/Cyclin E1 or CDK1/Cyclin B1 kinase activity in presence of increasing concentrations of compounds was calculated based on the ratio of fluorescence at 665 nm to that at 620 nm. The IC50 for each compound was derived from fitting the data to the four-parameter logistic equation by Dotmatics.
For orientation: In TR-FRET formats the signal depends on donor and acceptor labels being close together.

Experiment [2] addresses T2, CDK1/Cyclin B1 (Homo sapiens, UniProt P06493). Description: CDK1/Cyclin B1 TR-FRET biochemical assay (0.015 mM ATP). To be noted: 120 minutes reaction. The protocol:
as §1

The next experiment deals with HEK-293 cells. Description: HEK-293 cell cytotoxicity detection (CellTiter-Glo). Type of experiment: cell-based. The following applies: incubation of 72 h, CellTiter-Glo luminescence. The procedure:
HEK-293 cells were treated with compounds diluted in 0.4% DMSO, dilution was done according to the following protocol: (1) making 250× stock solution in DMSO from 10 mM by 4-fold dilution, total 8 doses were included; (2) making 2 solution in cell culture medium by transferring 1 μl 250× stock solution into 124 μl medium; (3) adding 50 μl of 2× solution to cells for incubation of 72 h.
25 μl of the CellTiter-Glo® Reagent [(PromegaCat #G9242)] was added to each well in the 96-well plate. The contents were mixed for 2 minutes on an orbital shaker to induce cell lysis. The plate was then allowed to incubate at room temperature for 10 minutes to stabilize luminescent signal. Luminescence was recorded on BMG PheraStar with luminescence protocol.
The IC50 value of a compound can be obtained by fitting the following equation: […]
Wherein, X and Y are known values, and IC50, Hillslope, Top and Bottom are the parameters obtained by fitting with software. Y is the inhibition percentage (calculated from the equation), X is the concentration of the compound; IC50 is the concentration of the compound when the 50% inhibition is reached. The smaller the IC50 value is, the stronger the inhibitory ability of the compound is. Vice versa, the higher the IC50 value is, the weaker the ability the inhibitory ability of the compound is; Hillslope represents the slope of the fitted curve, generally around 1*; Bottom represents the minimum value of the curve obtained by data fitting, which is generally 0%±20%; Top represents the maximum value of the curve obtained by data fitting, which is generally 100%±20%. The experimental data were fitted by calculating and analyzing with Dotmatics data analysis software.
In general terms: Cellular ATP, detected with luciferase, serves as a proxy for viable cell number.

For experiment [3], the target named is T1, CDK2/Cyclin E1. Description: CDK2/Cyclin E1 TR-FRET biochemical assay (1 mM ATP). To be noted: 90 minutes reaction. The procedure: as §1, with “1” for “0.060”, “and” for “or 0.015 mM ATP for”, “90” for “120”
The target of experiment [4] is T2, CDK1/Cyclin B1. Description: CDK1/Cyclin B1 TR-FRET biochemical assay (1 mM ATP). The following applies: 90 minutes reaction. The protocol:
as §1, with “1” for “0.060”, “and” for “or 0.015 mM ATP for”, “90” for “120”

T2 sequence (P06493 whole entry): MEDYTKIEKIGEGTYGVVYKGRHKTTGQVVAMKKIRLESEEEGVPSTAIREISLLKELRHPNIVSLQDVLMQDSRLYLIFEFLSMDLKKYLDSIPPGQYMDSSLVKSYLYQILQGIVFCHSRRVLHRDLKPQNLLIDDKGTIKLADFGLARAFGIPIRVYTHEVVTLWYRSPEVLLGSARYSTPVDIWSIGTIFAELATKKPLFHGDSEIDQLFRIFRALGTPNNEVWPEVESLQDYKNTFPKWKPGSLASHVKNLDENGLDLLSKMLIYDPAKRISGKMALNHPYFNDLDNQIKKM
T2 sequence (P14635 whole entry partner): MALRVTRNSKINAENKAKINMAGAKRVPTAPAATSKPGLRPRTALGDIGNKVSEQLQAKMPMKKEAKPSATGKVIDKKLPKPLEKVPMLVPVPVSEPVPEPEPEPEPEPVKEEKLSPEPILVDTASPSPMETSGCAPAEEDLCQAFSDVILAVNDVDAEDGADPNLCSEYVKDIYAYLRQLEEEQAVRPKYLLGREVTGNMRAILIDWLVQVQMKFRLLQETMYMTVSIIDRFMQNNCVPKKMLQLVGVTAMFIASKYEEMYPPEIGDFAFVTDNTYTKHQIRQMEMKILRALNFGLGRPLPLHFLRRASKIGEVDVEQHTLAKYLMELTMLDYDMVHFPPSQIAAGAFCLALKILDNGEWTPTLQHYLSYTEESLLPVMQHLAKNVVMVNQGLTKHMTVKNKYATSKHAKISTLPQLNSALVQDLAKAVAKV

As to `CC(C)NC(=O)O[C@H]1CC[C@@H](c2cc(Nc3cc4c(cc3F)S(=O)(=O)CC4)n[nH]2)C1` (relative stereo) [Example 1, cis-3-(3-((6-fluoro-1,1-dioxido-2,3-dihydrobenzo[b]thiophen-5-yl)amino)-1H-pyrazol-5-yl)cyclopentyl isopropylcarbamate], the concentration for half-maximal inhibition (IC50) was 49 nM against CDK2/Cyclin E1 [1]; 1140 nM on CDK1/Cyclin B1 [2]; greater than 10000 nM with HEK-293 cells (Homo sapiens, HEK293, 72 h).
As to `CCN(C)C(=O)O[C@H]1CC[C@@H](c2cc(Nc3ccc4c(c3F)CS(=O)(=O)C4)n[nH]2)C1` (relative stereo) [Example 32, cis-3-(3-((4-fluoro-2,2-dioxido-1,3-dihydrobenzo[c]thiophen-5-yl)amino)-1H-pyrazol-5-yl)cyclopentyl ethyl(methyl)carbamate], the IC50 against CDK2/Cyclin E1 [3] is 4.2 nM; against CDK1/Cyclin B1 [4], 493 nM; in the experiment on HEK-293 cells (Homo sapiens, HEK293, 72 h), greater than 10000 nM.
For the compound `CC1(NC(=O)OC2CCC(c3cc(Nc4ccc5c(c4F)CS(=O)(=O)C5)n[nH]3)C2)CCOC1` (single isomer, unassigned) [Example 13d, cis-3-(3-((4-fluoro-2,2-dioxido-1,3-dihydrobenzo[c]thiophen-5-yl)amino)-1H-pyrazol-5-yl)cyclopentyl (3-methyltetrahydrofuran-3-yl)carbamate], the IC50 against CDK2/Cyclin E1 [3] was determined as 0.9 nM; on CDK1/Cyclin B1 [4], 322 nM; in the experiment on HEK-293 cells (read-out: HEK293 IC50), 4210 nM.
The matching figures for `CCNC(=O)OC1CCC(c2cc(Nc3ccc4c(c3F)CS(=O)(=O)C4)n[nH]2)C1` (single isomer, unassigned) [Example 18b, cis-3-(3-((4-fluoro-2,2-dioxido-1,3-dihydrobenzo[c]thiophen-5-yl)amino)-1H-pyrazol-5-yl)cyclopentyl ethylcarbamate]: 5.2 nM, 555 nM and 522 nM.
For `O=C(NC1CCCC1)O[C@H]1CC[C@@H](c2cc(Nc3ccc4c(c3F)CS(=O)(=O)C4)n[nH]2)C1` (relative stereo) [Example 23, cis-3-(3-((4-fluoro-2,2-dioxido-1,3-dihydrobenzo[c]thiophen-5-yl)amino)-1H-pyrazol-5-yl)cyclopentyl cyclopentylcarbamate], the IC50 at CDK2/Cyclin E1 [3] worked out at 0.9 nM; on CDK1/Cyclin B1 [4], 410 nM; in the experiment on HEK-293 cells (Homo sapiens, HEK293, 72 h), 2860 nM.
For the compound `Cc1cc2c(cc1Nc1cc([C@@H]3CC[C@H](OC(=O)NC(C)C)C3)[nH]n1)CS(=O)(=O)C2` (relative stereo) [Example 28, cis-3-(3-((6-methyl-2,2-dioxido-1,3-dihydrobenzo[c]thiophen-5-yl)amino)-1H-pyrazol-5-yl)cyclopentyl isopropylcarbamate], the IC50 against CDK2/Cyclin E1 [3] is 9.4 nM; against CDK1/Cyclin B1 [4], 2900 nM; with HEK-293 cells (Homo sapiens, HEK293, 72 h), greater than 10000 nM.
In the case of `O=C(NC1CCOC1)OC1CCC(c2cc(Nc3ccc4c(c3F)CS(=O)(=O)C4)n[nH]2)C1` (single isomer, unassigned) [Example 24b, cis-3-(3-((4-fluoro-2,2-dioxido-1,3-dihydrobenzo[c]thiophen-5-yl)amino)-1H-pyrazol-5-yl)cyclopentyl (tetrahydrofuran-3-yl)carbamate], the values for the IC50 against CDK2/Cyclin E1 [3], on CDK1/Cyclin B1 [4] and with HEK-293 cells (read-out: HEK293 IC50) were 61 nM, 7870 nM and greater than 10000 nM, respectively.
Consider `CC1(NC(=O)OC2CCC(c3cc(Nc4ccc5c(c4F)CS(=O)(=O)C5)n[nH]3)C2)CCOC1` (single isomer, unassigned) [Example 13a, cis-3-(3-((4-fluoro-2,2-dioxido-1,3-dihydrobenzo[c]thiophen-5-yl)amino)-1H-pyrazol-5-yl)cyclopentyl (3-methyltetrahydrofuran-3-yl)carbamate], for which the concentration for half-maximal inhibition (IC50) against CDK2/Cyclin E1 [3] stood at 0.5 nM; against CDK1/Cyclin B1 [4] it was 493 nM; in the experiment on HEK-293 cells (read-out: HEK293 IC50) it was 2150 nM.
Turning to `C[C@]1(O)CC[C@H](NC(=O)OC2CCC(c3cc(Nc4ccc5c(c4F)CS(=O)(=O)C5)n[nH]3)C2)CC1` (stereo partly drawn) [Example 34, cis-3-(3-((4-fluoro-2,2-dioxido-1,3-dihydrobenzo[c]thiophen-5-yl)amino)-1H-pyrazol-5-yl)cyclopentyl ((1r,4r)-4-hydroxy-4-methylcyclohexyl)carbamate], the IC50 is 1.1 nM on CDK2/Cyclin E1 [3]; 1180 nM at CDK1/Cyclin B1 [4]; 1430 nM in the experiment with HEK-293 cells (Homo sapiens, HEK293, 72 h).
In the case of `CC(C)NC(=O)O[C@H]1CC[C@@H](c2cc(Nc3ccc4c(c3F)C[S+]([O-])C4)n[nH]2)C1` (relative stereo) [Example 31, cis-3-(3-((4-fluoro-2-oxido-1,3-dihydrobenzo[c]thiophen-5-yl)amino)-1H-pyrazol-5-yl)cyclopentyl isopropylcarbamate], the IC50 on CDK2/Cyclin E1 [3] was determined as 5.3 nM; against CDK1/Cyclin B1 [4] it was 3360 nM; in the experiment on HEK-293 cells (Homo sapiens, HEK293, 72 h), 1570 nM.
Regarding `CC1(NC(=O)OC2CCC(c3cc(Nc4ccc5c(c4F)CS(=O)(=O)C5)n[nH]3)C2)CCOC1` (single isomer, unassigned) [Example 13b, cis-3-(3-((4-fluoro-2,2-dioxido-1,3-dihydrobenzo[c]thiophen-5-yl)amino)-1H-pyrazol-5-yl)cyclopentyl (3-methyltetrahydrofuran-3-yl)carbamate], the figures for the IC50 at CDK2/Cyclin E1 [3], on CDK1/Cyclin B1 [4] and in the experiment with HEK-293 cells (read-out: HEK293 IC50) were 0.6 nM, 353 nM and 559 nM, respectively.
`O=C(NCC(F)(F)F)O[C@H]1CC[C@@H](c2cc(Nc3ccc4c(c3F)CS(=O)(=O)C4)n[nH]2)C1` (relative stereo) [Example 22, cis-3-(3-((4-fluoro-2,2-dioxido-1,3-dihydrobenzo[c]thiophen-5-yl)amino)-1H-pyrazol-5-yl)cyclopentyl (2,2,2-trifluoroethyl)carbamate]: the IC50 against CDK2/Cyclin E1 [3] is 4.5 nM; against CDK1/Cyclin B1 [4], 1050 nM; in the experiment with HEK-293 cells (Homo sapiens, HEK293, 72 h), greater than 10000 nM.
For `O=C(NC1CCC1)O[C@H]1CC[C@@H](c2cc(Nc3ccc4c(c3F)CS(=O)(=O)C4)n[nH]2)C1` (relative stereo) [Example 12, cis-3-(3-((4-fluoro-2,2-dioxido-1,3-dihydrobenzo[c]thiophen-5-yl)amino)-1H-pyrazol-5-yl)cyclopentyl cyclobutylcarbamate] the same measures were 1.2 nM, 609 nM and 499 nM.
For `CN(C(=O)O[C@H]1CC[C@@H](c2cc(Nc3ccc4c(c3F)CS(=O)(=O)C4)n[nH]2)C1)C1CCOC1` (relative stereo) [Example 21, cis-3-(3-((4-fluoro-2,2-dioxido-1,3-dihydrobenzo[c]thiophen-5-yl)amino)-1H-pyrazol-5-yl)cyclopentyl methyl(tetrahydrofuran-3-yl)carbamate] the same measures were 24 nM, 2600 nM and greater than 10000 nM.
